Measured values as given in patent publication US12649733B2, “3,6-diamino-pyridazin-3-yl derivatives, pharmaceutical compositions containing them and their uses as pro-apoptotic agents” (LES LABORATOIRES SERVIER, priority 2019, dated 2026).

Key:
Bcl-xL protein = molecular target: T1, Bcl-xL protein (Homo sapiens, UniProt Q07817, N197C); assay: Fluorescence quenching assay (PUMA peptide displacement); format: binding; settings: 1 nM protein, 400 nM peptide, 2 hours at 23° C.; KI determined from IC50
T1 construct: (2-197)[N197C]; His-His (two His8 stretches joined by a Gly/Ala/Ser/Thr linker)
T1 sequence (Q07817 2-197 N197C): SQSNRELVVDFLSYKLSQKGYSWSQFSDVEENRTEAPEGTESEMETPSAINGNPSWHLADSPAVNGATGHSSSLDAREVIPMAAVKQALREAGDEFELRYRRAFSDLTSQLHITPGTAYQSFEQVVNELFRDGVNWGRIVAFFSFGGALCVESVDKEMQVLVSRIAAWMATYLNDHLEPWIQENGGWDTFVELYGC
Procedure, shortened: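 Compounds were tested as an 11-point series in pH 7.4 HEPES/NaCl/Tween buffer with 5% DMSO, 2 h at 23 °C. Cy5-tagged Bcl-xL(2-197, N197C) at 1 nM and quencher-tagged PUMA peptide at 400 nM were used. Competitive binders restore fluorescence (620/680 nm), and IC50 values were converted to KI.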

H146 cells = assay: H146 cell viability, MTT assay; format: cell-based; settings: 48 h exposure
Procedure, shortened: (§1)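 Viability read by MTT reduction (OD 540 nm after overnight SDS/HCl lysis) after 48 h compound treatment of cells in RPMI 1640/10% FBS. Triplicates at nine concentrations, 3.16-fold apart; four-parameter curve fitting yields IC50.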

MOLT-4 cells = assay: MOLT-4 cell viability, MTT assay; format: cell-based; settings: 48 h exposure
Procedure, shortened: as §1

| SMILES | Ki (Bcl-xL protein) [pM] | IC50 (H146 cells) [nM] | IC50 (MOLT-4 cells) [nM] | IC50 (H146 cells; Homo sapiens, NCI-H146, 48 h) [nM] | IC50 (MOLT-4 cells; Homo sapiens, MOLT-4, 48 h) [nM] |
| --- | --- | --- | --- | --- | --- |
| Cc1cc(N(C)c2nc(C(=O)O)c(CCCOc3ccc(C#CC(C)N4CCOCC4)cc3F)s2)nnc1Nc1nc2ccccc2s1 (single isomer, unassigned) [Example 208, 2-[[6-(1,3-Benzothiazol-2-ylamino)-5-methyl-pyridazin-3-yl]-methyl-amino]-5-[3-[2-fluoro-4-((3S or 3R)-morpholinobut-1-ynyl)phenoxy]propyl]thiazole-4-carboxylic acid] | 8.8 | 7.33 | 0.753 |  |  |
| Cc1cc(N(C)c2nc(C(=O)O)c(CCCOc3ccc(C#CCNCC[N+](C)(C)CCCS(=O)(=O)[O-])cc3F)s2)nnc1Nc1nc2ccccc2s1 [Example 218, 3-[2-[3-[4-[3-[2-[[6-(1,3-Benzothiazol-2-ylamino)-5-methyl-pyridazin-3-yl]-methyl-amino]-4-carboxy-thiazol-5-yl]propoxy]-3-fluoro-phenyl]prop-2-ynylamino]ethyl-dimethyl-ammonio]propane-1-sulfonate] | 1.2 |  |  | 891 | 270 |
| Cc1cc(N(C)c2nc(C(=O)O)c(CCCOc3ccc(CCCN(C)C)cc3F)s2)nnc1Nc1nc2ccccc2s1 [Example 214, 2-[[6-(1,3-Benzothiazol-2-ylamino)-5-methyl-pyridazin-3-yl]-methyl-amino]-5-[3-[4-[3-(dimethylamino)propyl]-2-fluoro-phenoxy]propyl]thiazole-4-carboxylic acid] | 4 |  |  | 26.7 | 22.5 |
| Cc1cc(N(C)c2nc(C(=O)O)c(CCCOc3ccc(C#CCN(C)C)cc3)s2)nnc1Nc1nc2ccccc2s1 [Example 233, 2-[[6-(1,3-Benzothiazol-2-ylamino)-5-methyl-pyridazin-3-yl]-methyl-amino]-5-[3-[4-[3-(dimethylamino)prop-1-ynyl]phenoxy]propyl]thiazole-4-carboxylic acid] | 4.3 |  |  | 2.55 | 0.879 |
| CNCC#Cc1ccc(OCCCc2sc(N(CCCCCCN(C)C)c3cc(C)c(Nc4nc5ccccc5s4)nn3)nc2C(=O)O)c(F)c1 [Example 199, 2-[[6-(1,3-Benzothiazol-2-ylamino)-5-methyl-pyridazin-3-yl]-[6-(dimethylamino)hexyl]amino]-5-[3-[2-fluoro-4-[3-(methylamino)prop-1-ynyl]phenoxy]propyl]thiazole-4-carboxylic acid] | 1 |  |  | 64.1 | 25.9 |
| Cc1cc(N(CCCC(O)C[N+]2(C)CCOCC2)c2nc(C(=O)[O-])c(CCCOc3ccc(C#CCN(C)C)cc3F)s2)nnc1Nc1nc2ccccc2s1 (stereo not drawn) [Example 217, 2-[[6-(1,3-Benzothiazol-2-ylamino)-5-methyl-pyridazin-3-yl]-[4-hydroxy-5-(4-methylmorpholin-4-ium-4-yl)pentyl]amino]-5-[3-[4-[3-(dimethylamino)prop-1-ynyl]-2-fluoro-phenoxy]propyl]thiazole-4-carboxylate] | 4.1 |  |  | 86.2 | 180 |
| CNCC#Cc1ccc(OCCCc2sc(N(CCCCC[N+](C)(C)CCO)c3cc(C)c(Nc4nc5ccccc5s4)nn3)nc2C(=O)[O-])c(F)c1 [Example 229, 2-[[6-(1,3-Benzothiazol-2-ylamino)-5-methyl-pyridazin-3-yl]-[5-[2-hydroxyethyl(dimethyl)ammonio]pentyl]amino]-5-[3-[2-fluoro-4-[3-(methylamino)prop-1-ynyl]phenoxy]propyl]thiazole-4-carboxylate] | 1.4 |  |  | 437 | 1640 |
| CNCC#Cc1ccc(OCCCc2sc(N(CCCN(C)C)c3cc(C)c(Nc4nc5ccccc5s4)nn3)nc2C(=O)O)c(F)c1 [Example 200] | 7.7 |  |  | 115 | 695 |
| Cc1cc(N(C)c2nc(C(=O)O)c(CCCOc3ccc(C#CCNCCN(C)C)cc3F)s2)nnc1Nc1nc2ccccc2s1 [Example 223, 2-[[6-(1,3-Benzothiazol-2-ylamino)-5-methyl-pyridazin-3-yl]-methyl-amino]-5-[3-[4-[3-[2-(dimethylamino)ethylamino]prop-1-ynyl]-2-fluoro-phenoxy]propyl]thiazole-4-carboxylic acid] | 1.8 |  |  | 7.46 | 3.13 |
